Data: patent US12515027B2, “Subcutaneous biodegradable reservoir device” (Research Triangle Institute, priority 2018, dated 2026)
Where “and” joins values, the source holds several entries; their conditions need not be identical. Equal values may be shown once. Where a name gives a salt, the structure may show the parent alone.

What was measured:
[1] = Chromatographic purity (stability) of formulation inside implant after in-vitro exposure (UPLC/UV); type: physicochemical; conditions: after 180 days in simulated physiological conditions
[2] = In vitro release from PCL reservoir implants in PBS pH 7.4 at 37 °C (UV-Vis); type: physicochemical; conditions: for release rate of TAF: first 30 days, normalized to 314 mm^2; for release rate of TAF from implant: summary b130; for TAF dosage (daily release rate): release over 35 days, FIG. 24; for Release Rates of TAF, Gamma-Irradiated: 18-24 kGy
Method: The implants were incubated in 1×PBS (pH 7.4) at 37° C. Drug quantity released in media was measured via UV-Vis three times per week during which the implants were transferred to fresh buffer to maintain sink conditions. Drug concentrations were determined by correlating UV absorbance values to a standard curve. Standard curves involved measuring peak absorbance values as a function of drug concentrations diluted by half from bulk solutions. Peak absorbance values were determined by scanning the dilute drug solutions from 230 to 700 nm at a step size of 1 nm and assessing the maximum UV absorbance value.
Testing was performed to evaluate release kinetics of varying formulations of active agent and excipient. In particular, the release mechanism and release profiles for TAF formulated with varying mass quantities of castor oil from extruded PCL tubes was evaluated. Heat extruded PCL devices were fabricated (2.5 mm×40 mm) using 80 kDa Sigma grade PCL. […] For the in vitro release studies, devices were incubated in 40 mL of phosphate buffered saline (PBS) at pH 7.4 in a shaking incubator at 37° C. The implants were transferred to fresh buffer three times per week to maintain sink conditions.
Testing was performed to evaluate the in vitro release profile for an exemplary segmented device. In-vitro conditions included a simulated physiological media of a salt solution at pH between 6.5 and 7.5 at a temperature of 37° C. The exemplary device was engineered to release two APIs simultaneously, both at zero-order release kinetics. The device was fabricated with a segmented architecture that contained LNG formulated with ethyl oleate at a 1:4 ratio and EFdA formulated with castor oil at a 1:1 ratio and housed in separate compartments within a single implant design. Different segment lengths, polymer membrane thicknesses and polymer properties were tested.
In vitro release characterization involved incubation of the implants in 40 mL 1× phosphate buffered saline (PBS) (pH 7.4) at 37° C. and placed on an orbital shaker. […] The release buffer was sampled three times per week during which the devices were transferred to 40 mL of fresh buffer to maintain sink conditions. TAF quantity released in each PBS buffer during the time interval was calculated and cumulative mass of drug release as a function of time was determined.

[3] = subdermal silicone implant with PVA-coated channels, beagle dogs; cited from earlier work
[4] = Solubility of active agents in excipients (saturated solutions, UPLC/UV)
Method: Over a 24-hour period, the solutions were mixed periodically and returned to the water bath. After approximately 72 hours, the solutions were removed from the water bath and appearance recorded for each of the saturated solutions. […] The supernatants were prepared for analysis by UPLC. Triplicate weighed aliquots were prepared from the collected supernatants and analyzed for assay using a UPLC/UV method. The analysis was performed using a Waters BEH C18 column (2.1 mm×50 mm, 1.7 μm) under gradient, reversed phase conditions with detection at 260 nm. The saturated solutions were quantitated by linear regression analysis against a 5-point calibration curve.
Testing using the same methodology was performed for EFdA, LNG, and ENG using various excipients.

[5] = subcutaneous implant, up to 90 days
Method: Testing was performed to evaluate the in vivo release profile of an exemplary device.

SMILES: CC(C)OC(=O)[C@H](C)N[P@](=O)(CO[C@H](C)Cn1cnc2c(N)ncnc21)Oc1ccccc1 [TAF, Tenofovir Alafenamide Fumarate]
- chromatographic purity of TAF remaining in implant [1]: 89.2±0.8%
- release rate of TAF ([2]; 2:1 TAF:castor oil, 45 μm wall): 0.91 ± 0.23 mg/day
- release rate of TAF ([2]; 2:1 TAF:castor oil, 70 μm wall): 0.61 ± 0.09 mg/day
- release rate of TAF ([2]; 2:1 TAF:castor oil, 100 μm wall): 0.29 ± 0.05 mg/day
- release rate of TAF ([2]; 2:1 TAF:castor oil, 150 μm wall): 0.19 ± 0.04 mg/day
- release rate of TAF ([2]; 2:1 TAF:castor oil, 200 μm wall): 0.15 ± 0.03 mg/day
- initial release rate ([2]; 4:1 TAF-castor oil formulation): 0.2 mg/day
- initial release rate ([2]; 5:1 TAF-castor oil formulation): 0.4 mg/day
- release rate of TAF from implant ([2]; 45 μm PCL wall): approximately 0.8 mg/day
- TAF dosage (daily release rate) ([2]; 45 μm wall thickness, 2:1 TAF:castor oil): 0.78 ± 0.03 mg/day
- release rate of TAF from implant ([2]; 200 μm PCL wall): ~0.2 mg/day
- TAF dosage (daily release rate) ([2]; 200 μm wall thickness, 2:1 TAF:castor oil): 0.13 ± 0.01 mg/day
- Release Rates of TAF, Non-Irradiated ([2]; PC-12, 70 μm wall): 0.37 ± 0.05 mg/day
- Release Rates of TAF, Gamma-Irradiated ([2]; PC-12, 70 μm wall): 0.30 ± 0.03 mg/day
- Release Rates of TAF, Non-Irradiated ([2]; PC-12, 100 μm wall): 0.20 ± 0.03 mg/day
- Release Rates of TAF, Gamma-Irradiated ([2]; PC-12, 100 μm wall): 0.20 ± 0.02 mg/day
- Release Rates of TAF, Non-Irradiated ([2]; Sigma-PCL, 70 μm wall): 0.62 ± 0.09 mg/day
- Release Rates of TAF, Gamma-Irradiated ([2]; Sigma-PCL, 70 μm wall): 0.54 ± 0.06 mg/day
- Release Rates of TAF, Non-Irradiated ([2]; Sigma-PCL, 100 μm wall): 0.29 ± 0.05 mg/day
- Release Rates of TAF, Gamma-Irradiated ([2]; Sigma-PCL, 100 μm wall): 0.32 ± 0.03 mg/day
- Measured release rates for full sized device ([2]; TAF castor oil devices (1:1, 2:1, 3:1), PCL wall 70 μm, 2.5 mm x 40 mm): 0.7 mg/day and 0.7 ± 0.08 mg/day
- Measured release rates for full sized device ([2]; TAF castor oil devices, PCL wall 100 μm): 0.38 ± 0.04 mg/day
- Measured release rates for full sized device ([2]; TAF castor oil devices, PCL wall 200 μm): 0.22 ± 0.01 mg/day
- J, drug released from the membrane per unit area per unit time ([2]; TAF castor oil, 70 μm, surface area 314 mm^2): 0.002 mg/day/mm^2
- start of depletion ([2]; TAF:castor oil 1:1, 70 μm, 2.5 mm x 40 mm): 76 days
- start of depletion ([2]; TAF:castor oil 2:1, 70 μm, 2.5 mm x 40 mm): 83 days
- TAF remaining within the implant ([2]; after 180 days in vitro, payload approximately 115 mg): approximately 68 mg
- sustained release rate of TAF ([2]; over the course of 180 days in vitro, 2:1 TAF:castor oil, 100 μm wall, 2.5 mm OD x 40 mm): 0.25 ± 0.03 mg/day
- duration of zero-order release from segmented implants ([2]; segmented implants of TAF with LNG or ENG): 50 days
- duration of drug delivery [3]: 40 days
- solubility at 72 h ([4]; 37 °C, oil or lipid, thermodynamic from solid): 3900 µg/mL
- solubility of TAF within four different excipients ([4]; sesame oil, castor oil, oleic acid, PEG 600, FIG. 8): most soluble in oleic acid and PEG600
- reactivity at the site of the implant [5]: minimal reactivity
